# Entries after “also recorded” stand apart in the source; their conditions may differ. Counter-ions that a name gives are not always drawn. Like-named read-outs stand apart in the source and are kept apart here.
# Tests used:
# [1] = target: T1, β-galactosidase (Escherichia coli, UniProt P00722); assay: In vitro kinetic assay of galactosidase substrates (absorbance increase at 490 nm); type: biochemical; settings: in buffer, pH 7.0, room temperature; for Km: read-out: KM (Michaelis constant)
# T1 construct: purchased Sigma Chemical Co., St. Louis, Mo
# T1 sequence (P00722 2-1024): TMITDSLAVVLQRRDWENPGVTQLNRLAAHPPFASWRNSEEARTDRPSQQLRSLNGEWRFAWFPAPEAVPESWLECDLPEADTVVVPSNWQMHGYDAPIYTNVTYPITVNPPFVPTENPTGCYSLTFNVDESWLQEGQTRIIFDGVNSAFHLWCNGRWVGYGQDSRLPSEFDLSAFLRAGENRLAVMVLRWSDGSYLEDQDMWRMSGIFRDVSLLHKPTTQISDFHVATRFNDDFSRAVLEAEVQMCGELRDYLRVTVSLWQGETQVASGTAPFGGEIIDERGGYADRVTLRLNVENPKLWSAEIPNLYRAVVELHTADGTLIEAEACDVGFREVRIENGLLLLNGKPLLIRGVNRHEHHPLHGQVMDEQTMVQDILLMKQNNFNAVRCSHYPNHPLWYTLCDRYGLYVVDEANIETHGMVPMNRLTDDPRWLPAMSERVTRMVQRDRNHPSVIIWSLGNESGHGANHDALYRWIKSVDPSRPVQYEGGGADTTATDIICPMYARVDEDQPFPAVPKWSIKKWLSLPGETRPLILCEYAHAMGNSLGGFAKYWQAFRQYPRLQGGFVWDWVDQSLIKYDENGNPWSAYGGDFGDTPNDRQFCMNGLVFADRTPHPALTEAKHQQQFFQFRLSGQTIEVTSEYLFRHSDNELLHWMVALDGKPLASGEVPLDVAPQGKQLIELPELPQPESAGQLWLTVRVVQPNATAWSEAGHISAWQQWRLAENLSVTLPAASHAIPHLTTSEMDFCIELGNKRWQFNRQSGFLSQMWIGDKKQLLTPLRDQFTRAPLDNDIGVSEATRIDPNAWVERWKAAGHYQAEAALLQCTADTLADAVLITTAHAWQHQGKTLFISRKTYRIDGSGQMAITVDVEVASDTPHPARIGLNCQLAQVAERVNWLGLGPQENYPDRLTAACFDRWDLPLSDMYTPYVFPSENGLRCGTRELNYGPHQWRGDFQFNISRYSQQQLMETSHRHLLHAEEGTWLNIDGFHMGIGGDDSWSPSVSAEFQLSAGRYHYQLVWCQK
# Text: There are two parameters to describe the catalytic reaction of an enzyme on its substrate. The turnover rate k2, i.e. the substrate conversion rate by one unit of enzyme, can be expressed as μmol/(minute·mg). The Michaelis constant KM which gives the substrate binding ability to an enzyme (the smaller is KM, the higher is binding ability), can be expressed as μM. The relevant data for turnover of five lipophilic FDG substrates by β-galactosidase is detailed in Table 2.
# The substrates have essentially no absorbance at 490 nm while their hydrolysis products from reaction with β-galactosidase have a strong absorbance at this wavelength. Using the extinction coefficients of the products, the substrate hydrolysis rate can be determined by the absorbance increase at 490 nm (Table 2).
# 13.8 g NaH2 PO4.H2 O, 0.2 g MgCl2.6H2 O and 7 mL liquid 2-mercaptoethanol are dissolved in 1 liter distilled water and adjusted to pH 7.0 using NaOH.
# The glycosidase substrates are dissolved at 5 mg/mL in anhydrous DMSO.
# β-Galactosidase (Sigma Chemical Co., St. Louis, Mo.) is dissolved at 1 mg/mL in water. This solution is stable for 24 hours at room temperature.
# A series of substrate concentrations between 1 μM and 1 mM in 2.8 mL of the assay buffer is prepared and pipetted into a cuvette. 0.2 mL of a 1 mg/mL solution of β-galactosidase in water is added in the cuvette at room temperature to initiate the enzymatic reaction and the absorbance increase at 490 nm is immediately recorded in the spectrophotometer equipped with a chart recorder set at a speed of 10 mm/min. The enzyme reaction rate is calculated using an appropriate product extinction coefficient. Double reciprocal plotting of reaction rate and substrate concentration will yield the turnover rate and Michaelis constant (Stryer, BIOCHEMISTRY p. 189 (W. H. Freeman & Co., N.Y. 1988)).
# [2] = tested on: CRE BAG 2 (lacZ+) cells; assay: Labeling of lacZ+ cells with fluorogenic substrate, fluorescence microscopy; type: cell-based, mouse; settings: 60 μM
# Text: The photographs were taken under a Zeiss Axioplan Microscope equipped with FITC filter set using Fujichrome p1600 color reversal (slide) film. This film was then commercially developed. The black and white photographs were printed from color slides under the following conditions: 1)Internegative using Ilford Panf film, exposed for 1/60 sec. at f11;2) black and white prints on Kodak polycontrast III paper.
# (§1) CRE BAG 2 (lacZ+) cells were used to test the effectiveness of the substrate in labeling lacZ+ cells. NIH3T3 (lacZ-) cells were used as a control. Both cell lines were obtained from American Type Culture Collection Co., Rockville, Md. The cells were grown in a humidified atmosphere of 5% CO2 in Dulbecco's modified Eagle's medium (DMEM) supplemented with 10% calf serum, 50 μg/ml gentamycin, 300 μg/ml L-glutamine and 10 mM HEPES pH 7.4 (culture medium).
# (§2) to 1.0 mg of 5-fattyacylaminofluorescein di-β-galactopyranoside substrate (C12 FDG) was added 0.1193 ml of 20% DMSO to get 10 mM stock solution. Stock solutions were kept sealed in the brown bottle and stored at 4° C.
# (§3) […] Labeling culture medium was filter-sterilized by passing through an ACRODISC™ filter (0.20 μm pore size).
# Cells were washed with fresh (non-labeling) culture medium before examination. […] After 6 hrs., the fluorescence intensity in CRE BAG 2 cells reached its highest level.
# [3] = tested on: NIH3T3 (lacZ-) cells; assay: Labeling of lacZ- control cells with fluorogenic substrate, fluorescence microscopy; type: cell-based, mouse; settings: 60 μM, after 1 hr. incubation
# Protocol: as §1, §2, §3
# Cells were washed with fresh (non-labeling) culture medium before examination. Cells were observed using a microscope equipped with a fluorescein filter. […] After 6 hrs., the fluorescence intensity in CRE BAG 2 cells reached its highest level.
# [4] = tested on: cells; assay: Cytotoxicity of the labeling reagent for cultured cells; type: cell-based; settings: for toxicity effects on labelled cells: concentration up to 100 mM
# [5] = tested on: plant cell populations; settings: cited from earlier work
# [6] = tested on: GUS gene positive tobacco plant cells; assay: Detection of GUS gene expression in transformed plant cells; type: cell-based; settings: 100 μM, 4 h incubation, GUS+ versus control cells
# Protocol: In our cellular assay, the tobacco plant with and without the GUS gene (CaMV35S-GUS, cauliflower mosaic virus 35S promoter with the coding region of GUS) were used. (Ref: Jefferson, R.A., EMBO J., 1987, 6, 3901-3907).
# Sections of the stem of both plants were cultured on Murashige and Skoog basal medium with sucrose and agar inside of plant culture dish at 2000 lux, 18 h day, 26° C. The calli were collected from the dishes, cut to small pieces and transferred to liquid medium (in screw cap 50 ml Erlenmeyer flasks) to get cell suspension with shaking (120 rpm) at the culture room. Sterilized 1 mM FA910 solution (in water) was added to the cell suspension to final concentration of 100μM. After incubating cells in normal condition for 4 h, take 1 ml of suspension, spin down the cells. The cells were resuspended in 100 μl of fresh culture medium, placed onto glass slide, covered with a cover glass and sealed with wax.
# Both the GUS+ and control tobacco cells were examined under a Zeiss microscope equipped with FITC filter set. Photographs were taken of both fluorescent and Nomaski images (Fujichrome P1600D, color reversal film, daylight).
# [7] = tested on: lacZ+ cell; assay: Examination of galactosidase activity of sorted cells with resorufin galactoside; type: cell-based; settings: 0.5 mM, 0.1 M phosphate buffer, 0.1% Triton X-100
# Protocol: The sorted cell is collected in a 96 well microtiter plate (Corning, N.Y.). The cell galactosidase activity is examined by means of the permeant fluorogenic substrate resorufin galactoside (Molecular Probes, Inc., Eugene, OR). To 20 μl cell sample in a microtiter well, is added 200 μl of a 0.5 mM resorufin galactoside solution in 0.1 M phosphate buffer containing 1 mM MgCl2 and 0.1% Triton X-100. After 1 hour incubation, the plate is read in a CYTOFLUOR™ fluorescence plate reader (Millipore, Bedford, Mass.) with excitation at 560 nm, emission at 645 nm, sensitivity=1. A fluorescence reading below 20 can be scored lacZ- cell and a reading higher than 60 can be scored lacZ+. The resorufin galactoside can detect the enzyme activity in a single lacZ^+ cell within 1 hour.
Molecule,k2 (turnover rate) [1] [µmol/min/mg],Km [1] [µM],toxicity effects on labelled cells [4],toxicity to the cells [5],other results
"O=C1OC2(c3ccc(O[C@@H]4O[C@H](CO)[C@H](O)[C@H](O)[C@H]4O)cc3Oc3cc(O[C@@H]4O[C@H](CO)[C@H](O)[C@H](O)[C@H]4O)ccc32)c2ccccc21 [C0 FDG, fluorescein di-62-galactopyranoside, reference compound]",1.90,18,,,
"CCCCCCCCCCCC(=O)Nc1ccc2c(c1)C(=O)OC21c2ccc(O[C@@H]3O[C@H](CO)[C@H](O)[C@H](O)[C@H]3O)cc2Oc2cc(O[C@@H]3O[C@H](CO)[C@H](O)[C@H](O)[C@H]3O)ccc21 [C12 FDG, 5-DODECANOYLAMINOFLUORESCEIN DI-β-D-GALACTOPYRANOSIDE]",0.0537,0.316,no detectible toxicity effects,,time at which fluorescence intensity in CRE BAG 2 cells reached its highest level [2]: 6 h; fluorescence inside CRE BAG 2 cells ([2]; after 1 hr. incubation): fluorescence was observed inside CRE BAG 2 cells; fluorescence in 3T3 cells [3]: not in 3T3 cells; population doubling time compared with control ([4]; 60 μM labeling medium): same population doubling time as the control; population doubling time compared with control ([4]; 0.2 mM in the culture medium): same population doubling time as the control; morphology and viability of cells ([4]; grown in 0.2 mM for 10 days): normal morphology and remained viable; also recorded: normal in morphology and appearance; second generation of subcultured cells ([4]; preincubated in 60 μM for 24 hrs.): cells of second generation were normal; second generation of subcultured cells ([4]; preincubated in the labeled culture medium for 24 hrs.): cells of the second generation were normal
CCCCCCCCCCCCCCCC(=O)Nc1ccc2c(c1)C(=O)OC21c2ccc(O[C@@H]3O[C@H](CO)[C@H](O)[C@H](O)[C@H]3O)cc2Oc2cc(O[C@@H]3O[C@H](CO)[C@H](O)[C@H](O)[C@H]3O)ccc21 [C16 FDG],0.273,1.06,no detectible toxicity effects,,
CCCCCCCCCCCCCCCCCC(=O)Nc1ccc2c(c1)C(=O)OC21c2ccc(O[C@@H]3O[C@H](CO)[C@H](O)[C@H](O)[C@H]3O)cc2Oc2cc(O[C@@H]3O[C@H](CO)[C@H](O)[C@H](O)[C@H]3O)ccc21 [C18 FDG],8.28,20.8,no detectible toxicity effects,,
"CCCCCCCCCCCCCCCCCC(=O)Nc1ccc2c(c1)C(=O)OC21c2ccc(O)cc2Oc2cc(O)ccc21 [Example F18, octadecanoyl aminofluorescein]",,,,non-toxic,
"CCCCCCCCCCCCCCCCCCOC(=O)c1ccccc1-c1c2ccc(=[N+](CC)CC)cc-2oc2cc(N(CC)CC)ccc12 [Example R18, octadecyl rhodamine B]",,,,non-toxic,
"CCCCCCCCCCCC(=O)Nc1ccc2c(c1)C(=O)OC21c2ccc(O[C@@H]3O[C@H](C(=O)O)[C@@H](O)[C@H](O)[C@H]3O)cc2Oc2cc(O[C@@H]3O[C@H](C(=O)O)[C@@H](O)[C@H](O)[C@H]3O)ccc21 [FA910, 5-DODECANOYLAMINOFLUORESCEIN DI-β-D-GLUCOPYRANOSIDURONIC ACID, DI-LITHIUM SALT]",,,,,staining of tobacco cells (yellowish-green fluorescence) [6]: Only the GUS gene positive tobacco plant cells were stained
O=c1ccc2nc3ccc(O[C@@H]4O[C@H](CO)[C@H](O)[C@H](O)[C@H]4O)cc3oc-2c1 [resorufin galactoside],,,,,time to detect enzyme activity in a single lacZ+ cell [7]: ≤ 1 h
fluorescein isothiocyanate [FITC],,,,non-toxic,toxicity to the cells at high levels ([5]; high levels): toxic at high levels
rhodamine isothiocyanate [RITC],,,,non-toxic,toxicity to the cells at high levels [5]: toxic at high levels

# From patent US5208148A, “Lipophilic fluorescent glycosidase substrates” (Molecular Probes, Inc., priority 1990, dated 1993)
